US8293240B2, “Method of treating drug-resistant cancer” (The Regents of the University of Colorado, priority 2004, dated 2012)

Tests used:
[1] = tested on: HL60 MDR human leukemia cells; assay: percent death of HL60 MDR cells (flow cytometry, live versus dead); format: cell-based
Procedure: Dot plots as a function of live versus dead cells. The cells were cultured at a concentration of 0.5 to 1 million cells per ml. Cells were untreated or treated with or 2-deoxy-D-glucose and/or etomoxir and/or antibodies to UCP2 and used at dilutions or concentrations as indicated on the figure. The cells were cultured in the presence or absence of etomoxir at 100 micrograms/ml for 24 hours followed by treatment with antibody as indicated for an additional 24 or 48 hours (i.e. totals of 48 hours or 72 hours respectively). Cells were harvested and analyzed by flow cytometry. Each dot on the dot plot represents one cell. Five thousand cells were assessed for forward scatter (FS), as a function of cell size, versus side scatter (SS), as a function of cellular granularity. The upper elipse represents live cells by these criterion and the lower elipse in each dot plot represents the dead cells.
HL60 MDR human leukemia cells were cultured as described above under “Materials and Methods”. Cells were untreated or treated with etomoxir, with 2-deoxy-D-glucose, or with a combination of etomoxir and 2-deoxy-D-glucose, at concentrations indicated in FIG. 27 for 24 hours. Cells were harvested and analyzed by flow cytometry.
Referring to FIGS. 31 and 32, HL60 MDR cells, cultured as described in Example 21, were untreated or treated with etomoxir, with 2-deoxy-D-glucose, or with a combination of etomoxir and 2-deoxy-D-glucose, at concentrations indicated in FIG. 31 for 48 hours. Cells were harvested and analyzed by flow cytometry.
Referring to FIGS. 35 and 36, HL60 MDR cells, cultured as described in Example 21, were treated with anti-UCP2 antibody and otherwise untreated or treated simultaneously with etomoxir, 2-deoxy-D-glucose, or both, at concentrations indicated in FIG. 35 for 48 hours. Cells were harvested and analyzed by flow cytometry.

[2] = tested on: RD cells (rhabdomyosarcoma cells-not drug resistant); assay: percent death of RD cells (flow cytometry, live versus dead); format: cell-based
Procedure: The cells were cultured at a concentration of 0.5 to 1 million cells per ml. Cells were untreated or treated with or 2-deoxy-D-glucose and/or etomoxir and/or antibodies to UCP2 and used at dilutions or concentrations as indicated on the figure. The cells were cultured in the presence or absence of etomoxir at 100 micrograms/ml for 24 hours followed by treatment with antibody as indicated for an additional 24 or 48 hours (i.e. totals of 48 hours or 72 hours respectively). Cells were harvested and analyzed by flow cytometry. Each dot on the dot plot represents one cell. Five thousand cells were assessed for forward scatter (FS), as a function of cell size, versus side scatter (SS), as a function of cellular granularity. The upper elipse represents live cells by these criterion and the lower elipse in each dot plot represents the dead cells.
Referring to FIGS. 29 and 30, RD cells (rhabdomyosarcoma cells-not drug resistant), cultured as described above under “Materials and Methods” were untreated or treated with etomoxir, with 2-deoxy-D-glucose, or with a combination of etomoxir and 2-deoxy-D-glucose, at concentrations indicated in FIG. 29 for 24 hours. Cells were harvested and analyzed by flow cytometry.
Referring to FIGS. 33 and 34, RD cells, cultured as described in Example 22, were untreated or treated with etomoxir, with 2-deoxy-D-glucose, or with a combination of etomoxir and 2-deoxy-D-glucose, at concentrations indicated in FIG. 33 for 48 hours. Cells were harvested and analyzed by flow cytometry.
Referring to FIGS. 37 and 38, RD cells, cultured as described in Example 22, were treated with anti-UCP2 antibody and otherwise untreated or treated simultaneously with etomoxir, 2-deoxy-D-glucose, or both, at concentrations indicated in FIG. 37 for 48 hours. Cells were harvested and analyzed by flow cytometry.

HL60 MDR tumor = assay: tumor volume of HL60 MDR tumor implanted in nude mice; format: in vivo; details: for tumor volume: 200 ug Etomoxir, 2.5 mM 2-Deoxy-D-glucose
From the text: Tumor implantation. Mice were purchased from the Animal Production Program of National Cancer Institute, Frederick, Md. The animals used were Athymic Ncr-nu/nu (strain code 01B74). HL60 MDR cells were harvested and reconstituted at 1 million cells per 100 microliters of phosphate buffered saline. One million tumor cells per injection site were implanted subcutaneously on two sites of the animal's back. Treatments began at exactly seven days post tumor implantation. Tumor size/volume was monitored twice weekly using measurement calipers, with the formula Tumor Volume=π×(short diameter)^2×(long diameter)/6.
Mice experiments with fatty acid metabolism and glucose metabolism inhibitors. Fatty acid metabolism inhibitors were exemplified by etomoxir at 200 micrograms/day. Glucose metabolism inhibitors were exemplified by 2-deoxy-D-glucose at 2.5 mM in 100 microliters daily. The combination was administered daily, etomoxir at 200 micrograms and 2-deoxy-D-glucose at 2.5 mM in 100 microliters. All drugs were administered intra-peritoneally. Fluorouracil, at 20 mg per kilogram mouse, was injected intra-peritoneally once a week
HL60 MDR human leukemia cells were cultured and implanted in nude mice as described above under “Materials and Methods”. The mice were given 200 ug of Etomoxir, 2.5 mM 2-Deoxy-D-glucose, or both 200 ug of Etomoxir and 2.5 mM 2-Deoxy-D-glucose given daily by IP injection. Treatment began exactly one week after tumor implantation.
Mice were purchased from National Cancer Institute, Animal Production Program (Frederick, Md.). The animals used were Athymic Ncr-nu/nu (Strain code 01B74). HL60 MDR cells were harvested and reconstituted at 1 million cells per 100 microliters of phosphate buffered saline. One million tumor cells/per injection site were implanted subcutaneously on two sites of the animal's back. Treatments began at exactly seven days post tumor implantation. Tumor size/volume was monitored twice weekly using measurement calipers with the formula for Tumor Volume=π(short diameter)^2(long diameter)/(divided by )6. […]

[3] = 5-FU that is taken up by the cell; cited from earlier work
B16F1 = assay: % death of B16F1 cells treated or not with cerulenin (flow cytometry); format: cell-based, mouse; details: B16F1, 25 ug/mL Cerulenin
Procedure: (§1) Statistical Analysis, Percents, and Geometric Mean Values Percents. Gating is a tool provided by Cell Quest software and allows for the analysis of a certain population of cells. Gating around both the live and dead cell populations gave a percent of the cell numbers that was in each population. After the gates were drawn, a percent value of dead cells was calculated by taking the number of dead cells divided by the number of total cells and multiplying by one hundred.
(§2) This example illustrates an embodiment of the invention, where multi-drug resistant cancer cells were exposed to compositions of the invention. Analysis of the cells was performed using flow cytometry. The flow cytometry experiments were performed as follows. The cells were harvested, counted, and resuspended as described above. For DNA staining, the cells were washed and resuspended in ice-cold PBS and fixed by the dropwise addition of 95% ethanol. The cells were then incubated for 30 minutes on ice, washed, and resuspended in PBS containing 1% formaldehyde and 0.01% Tween. The cells were incubated with 50 units of DNAse and washed with PBS containing 5% DNAse. The cells were then incubated with anti DNA Fab (166, kind gift of Dr. Susan Wallace, University of Vermont), then washed and stained with a fluorescein conjugated second step anti-mouse immunoglobulin. The cells were then washed and resuspended in PBS/3% BSA/1% formaldehyde. The cells were stained for intracellular H2O2 using 6-carboxy-2′,7′-dichlorodihydrofluorescein diacetate (DCF-DA, Molecular Probes, Eugene, Oreg.). The cells were incubated with 1 mM DCF-DA for 20 minutes, washed twice in PBS containing 5% fetal calf serum and analyzed using flow cytometry. The mitochondrial membrane potential was assessed using MitoTracker Red (CM-H2XROS, Molecular Probes, Eugene, Oreg.). The cells were resuspended in warm (37° C.) PBS containing a final concentration of 0.5 micromolar of dye. The cells were then incubated for 30 minutes, pelleted, and resuspended in prewarmed medium for analysis. The data was acquired on a Coulter Elite Epics or Excel flow cytometer (Coulter, Hialeah, Fla.) and analyzed with CellQuest software, (Becton Dickinson, San Jose, Calif.). […] Each sample population was classified for cell size (forward scatter) and complexity (side scatter), gated on a population of interest and evaluated using 40,000 cells. Each figure describing flow cytometric data represents one of at least four replicate experiments. […]
(§3) The flow cytometry experiments were performed as follows. Once the samples were prepared and transferred into flow cytometric tubes, the samples were analyzed on a Becton/Dickinson Flow Cytometer. […] Statistical analysis, percents, and geometric mean values percents were calculated as described above.

HL60 = assay: % death / microscopy of HL60 cells treated or not with cerulenin; format: cell-based, human; details: for % Death: HL60, 25 ug/mL Cerulenin
Procedure: as §1
(§4) This example illustrates an embodiment of the invention, where multi-drug resistant cancer cells were exposed to compositions of the invention. Analysis of the cells was performed using flow cytometry. The flow cytometry experiments were performed as follows. The cells were harvested, counted, and resuspended as described above. For DNA staining, the cells were washed and resuspended in ice-cold PBS and fixed by the dropwise addition of 95% ethanol. The cells were then incubated for 30 minutes on ice, washed, and resuspended in PBS containing 1% formaldehyde and 0.01% Tween. The cells were incubated with 50 units of DNAse and washed with PBS containing 5% DNAse. […] The cells were incubated with 1 mM DCF-DA for 20 minutes, washed twice in PBS containing 5% fetal calf serum and analyzed using flow cytometry. The mitochondrial membrane potential was assessed using MitoTracker Red (CM-H2XROS, Molecular Probes, Eugene, Oreg.). […] The data was acquired on a Coulter Elite Epics or Excel flow cytometer (Coulter, Hialeah, Fla.) and analyzed with CellQuest software, (Becton Dickinson, San Jose, Calif.). […] Each sample population was classified for cell size (forward scatter) and complexity (side scatter), gated on a population of interest and evaluated using 40,000 cells. […]
as §3, with “above. […]” for “above.”

HL60 MDR = assay: % death / microscopy of HL60 MDR cells treated or not with cerulenin; format: cell-based, human; details: for % Death: 25 ug/mL Cerulenin
Procedure: as §1, §2
as §3, with “above. […]” for “above.”

L1210 = assay: % death of L1210 cells treated or not with cerulenin (flow cytometry); format: cell-based; details: L1210, 25 ug/mL Cerulenin
Procedure: as §1
as §4, with “above.” for “above. For DNA staining, the cells were washed and resuspended in ice-cold PBS and fixed by the dropwise addition of 95% ethanol. The cells were then incubated for 30 minutes on ice, washed, and resuspended in PBS containing 1% formaldehyde and 0.01% Tween. The cells were incubated with 50 units of DNAse and washed with PBS containing 5% DNAse.”

L1210 DDP = assay: % death of L1210 DDP cells treated or not with cerulenin (flow cytometry); format: cell-based; details: for % Death: 25 ug/mL Cerulenin
Procedure: as §1, §4, §3

B16F1 melanoma cells = assay: mice injected with B16F1 melanoma cells exposed or not to cerulenin; format: in vivo; details: for tumor observation and activity of mouse: B16F1 10^6 cells treated w/25 ug/ml cerulenin 5.0 hrs before injection
From the text: Highly carcinogenic B16F1 melanoma cells were either exposed (“treated”) or not exposed to cerulenin, then injected into male mice.

In the case of `OC[C@H]1O[C@H](O)CC(O)[C@@H]1O` (stereo partly drawn) [2-deoxy-D-glucose], the “percent of cell deaths” value ([1]; HL60 MDR cells after 24 hours) is reported as 16%, the “percent of cell deaths” value ([1]; HL60 MDR cells after 48 hours) is reported as 38% and the “percent of cell deaths” value ([2]; RD cells after 24 hours) is reported as 46%. The “percent of cell deaths” value ([2]; RD cells after 48 hours) was 63%, the tumor volume (HL60 MDR tumor; Day 7, daily IP from one week after implantation) was 35 mm^3 and the tumor volume (HL60 MDR tumor; Day 9, daily IP) was 51.56 mm^3. For the same compound, the tumor volume (HL60 MDR tumor; Day 15, daily IP) was 158.55 mm^3, the tumor volume (HL60 MDR tumor; Day 21, daily IP) was 1,181.61 mm^3 and the “effect on tumor growth” value (HL60 MDR tumor; HL60 MDR in nude mice, 21 day period, single agent) was “increase in tumor growth”.
For `O=c1[nH]cc(F)c(=O)[nH]1` [5-FU, 5-Fluorouracil], the half-life in vivo [3] is listed as “about 18 minutes”.
In the case of `C/C=C/C/C=C/CCC(=O)[C@H]1O[C@H]1C(N)=O` [cerulenin], the “% Death” value (B16F1; 4 Hours (Table 1)) is reported as 0%, the “% Death” value (B16F1; 5.0 Hours (Table 2)) is reported as 67% and the “% Death” value (B16F1; 24 hours (Table 2)) is reported as 72%. For the same compound, the “% Death” value (B16F1; .0 Hours (Table 1)) was 1%, the “% Death” value (HL60; 4 Hours (Table 1)) was 4% and the “% Death” value (HL60; .0 Hours (Table 1)) was 1%. For the same compound, the “cell survival in microscopy images” value (HL60; HL60 cells treated with cerulenin, FIG. 4C) was “large numbers of the cells survived”, the “cell death in microscopy images” value (HL60 MDR; HL60 MDR cells treated with cerulenin, FIGS. 4E and 4F) was “large numbers of cell death” and the “% Death” value (HL60 MDR; HL60 MDR, 4 Hours (Table 1)) was 9.6%. The “% Death” value (HL60 MDR; HL60 MDR, .0 Hours (Table 1)) was 3%, the “cell death compared to control and non-multidrug resistant cancer cells” value (HL60 MDR; HL60 MDR, after treatment with cerulenin) was “greater amounts of cell death” and the “% Death” value (L1210; 7.0 Hours) was 27%. For the same compound, the “% Death” value (L1210; 24 Hours) was 89%, the “% Death” value (L1210 DDP; 7.0 Hours) was 14% and the “% Death” value (L1210 DDP; 24 Hours) was 92%. For the same compound, the “cell death compared to control and non-multidrug resistant cancer cells” value (L1210 DDP; after treatment with cerulenin) was “greater amounts of cell death”, the “tumor observation and activity of mouse” value (B16F1 melanoma cells; Day 9) was “Day 9 no visible sign of tumors - very active” and the “tumor observation and activity of mouse” value (B16F1 melanoma cells; Day 12) was “Day 12 no visible tumors - very active (FIG. 5D)”. For the same compound, the “tumor observation and activity of mouse” value (B16F1 melanoma cells; Day 13) was “Day 13 no visible tumors - very active” and the “development of lethal cancers” value (B16F1 melanoma cells; mice exposed to melanoma cells treated with cerulenin, during the experiment) was “did not develop lethal cancers”.
